The text below walks through data of patent US6387848B1, “Non-aqueous concentrated spreading oil composition” (priority 2000, dated 2002).

Read-outs that look alike come from different tables or passages of the source.

Assay [1] concerns Pyricularia oryzae. The format is in vivo. To be noted: added to the water, 126 day after treatment.
Assay [2] has as its system Pyricularia oryzae. It counts as in vivo. The settings on record: added to the water, 52 days after treatment.
[3] abbreviates: Granules 50 g/kg, dose 100 g/ha.
Where [4] appears, read: Granules 50 g/kg, dose 250 g/ha.
The mark [5] stands for this setting: Granules 50 g/kg, dose 500 g/ha.
[6] abbreviates: Granules 50 g/kg, dose 1000 g/ha.
Where [7] appears, read: SO 30 g/L (Example 1), dose 50 g/ha.
Where [8] appears, read: SO 30 g/L (Example 1), dose 100 g/ha.
Where [9] appears, read: SO 30 g/L (Example 1), dose 250 g/ha.
Setting [10] is: SO 30 g/L (Example 1), dose 500 g/ha.
Setting [11] is: SO 30 g/L (Example 1), dose 1000 g/ha.

Take `C[C@H](Nc1c(-c2c(F)cc(F)cc2F)c(Cl)nc2ncnn12)C(F)(F)F` [(S)-Azolopyrimidine C, 5-chloro-6-(2,4,6-trifluorophenyl)-7-(1,1,1-trifluoroprop-2-ylamino)-[1,2,4]triazolo[1,5-a]pyrimidine]: the “Percent rice danicle blast control, control (%)” value in the assay with Pyricularia oryzae [1] (setting [3]) was found to be 39%; with Pyricularia oryzae [1] (setting [4]), 44%; with Pyricularia oryzae [1] (setting [5]), 67%; with Pyricularia oryzae [1] (setting [6]), 82%; in the assay with Pyricularia oryzae [1] (setting [7]), 22%; in the assay with Pyricularia oryzae [1] (setting [8]), 44%. For the same compound, the “Percent rice danicle blast control, control (%)” value in the assay with Pyricularia oryzae [1] (setting [9]) was 67%; in the assay with Pyricularia oryzae [1] (setting [10]), 78%; with Pyricularia oryzae [1] (setting [11]), 84%. The “Percent rice leaf blast control, control (%)” value in the assay with Pyricularia oryzae [2] (setting [3]) is recorded as 78%; with Pyricularia oryzae [2] (setting [4]), 86%; in the assay with Pyricularia oryzae [2] (setting [5]), 90%; in the assay with Pyricularia oryzae [2] (setting [6]), 95%; in the assay with Pyricularia oryzae [2] (Granules 50 g/kg, dose 1500 g/ha), 97%; in the assay on Pyricularia oryzae [2] (setting [7]), 84%. Moreover, the “Percent rice leaf blast control, control (%)” value turned out to be 89% with Pyricularia oryzae [2] (setting [8]), 95% with Pyricularia oryzae [2] (setting [9]), 97% in the assay on Pyricularia oryzae [2] (setting [10]) and 98% in the assay with Pyricularia oryzae [2] (setting [11]).
